In US10344000B2, “Substituted bicyclic pyrazole compounds as RORgammaT inhibitors and uses thereof” (Merck Sharp & Dohme Corp., priority 2015, dated 2019):
pIC50: −log10 of the molar value.

Biological target: human RORgammaT-Ligand Binding Domain (LBD) (Homo sapiens (Human), UniProt P51449)
Assay: RORγ-Ligand Binding Domain TR-FRET Assay (SRC1_2 co-activator peptide)
Assay type: biochemical
Details: Fret IC50 (nM), HIS-tagged RORγ-LBD 3 nM, biotinylated SRC1 LXXLL peptide 100 nM, incubated overnight at 4° C.

human RORgammaT-Ligand Binding Domain (LBD), sequence (P51449 269-508): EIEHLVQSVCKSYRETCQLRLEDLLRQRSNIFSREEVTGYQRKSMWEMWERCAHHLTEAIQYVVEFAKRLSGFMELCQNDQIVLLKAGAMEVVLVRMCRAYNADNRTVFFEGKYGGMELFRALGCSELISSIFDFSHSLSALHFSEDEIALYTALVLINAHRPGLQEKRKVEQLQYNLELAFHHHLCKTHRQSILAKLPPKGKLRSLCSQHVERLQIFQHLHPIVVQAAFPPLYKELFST

N#CC1(c2cccc(Cl)c2C(=O)n2nc(C3=CCC(C(=O)O)CC3)c3c2COCC3)CCC1 (single isomer, unassigned) [Example 2C-A, (1R or S)-4-(1-{[2-chloro-6-(1-cyanocyclobutyl)phenyl]carbonyl}-1,4,5,7-tetrahydropyrano[3,4-c]pyrazol-3-yl)cyclohex-3-ene-1-carboxylic acid] was tested, and the IC50 was 676 nM.
N#CC1(c2cccc(Cl)c2C(=O)n2nc(C3=CCC(C(=O)O)CC3)c3c2COCC3)CCC1 (single isomer, unassigned) [Example 2C-B, (1R or S)-4-(1-{[2-chloro-6-(1-cyanocyclobutyl)phenyl]carbonyl}-1,4,5,7-tetrahydropyrano[3,4-c]pyrazol-3-yl)cyclohex-3-ene-1-carboxylic acid] showed an IC50 of 1050 nM.

Same assay, conditions: HIS-tagged RORγ-LBD 3 nM, biotinylated SRC1 LXXLL peptide 100 nM, incubated overnight at 4° C.; read-out: Fret IC50

Compared with O=C(O)C1CC=C(c2nn(C(=O)c3c(Cl)cccc3C3CC3)c3c2CCC(CO)C3)CC1 (single isomer, unassigned) [Example 6A, 4-((R or S)-1-(2-chloro-6-cyclopropylbenzoyl)-6-(hydroxymethyl)-4,5,6,7-tetrahydro-1H-indazol-3-yl)cyclohex-3-ene-1-carboxylic Acid], NCC1CCc2c(C3=CCC(C(=O)O)CC3)nn(C(=O)c3c(Cl)cccc3C3CC3)c2C1 (single isomer, unassigned) [Example 14A, 4-((R or S)-6-(aminomethyl)-1-(2-chloro-6-cyclopropylbenzoyl)-4,5,6,7-tetrahydro-1H-indazol-3-yl)cyclohex-3-ene-1-carboxylic Acid] is 0.84 log units lower in pIC50: 6.76 for the first, 5.92 for the second.

Compared with O=C(O)C1CC=C(c2nn(C(=O)c3c(Cl)cccc3C3CC3)c3c2CCC(CO)C3)CC1 (single isomer, unassigned) [Example 7A, 4-((R or S)-1-(2-chloro-6-cyclopropylbenzoyl)-6-(hydroxymethyl)-4,5,6,7-tetrahydro-1H-indazol-3-yl)cyclohex-3-ene-1-carboxylic Acid], O=C(O)C1CC=C(c2nn(C(=O)c3c(Cl)cccc3C3COC3)c3c2CCC(CO)C3)CC1 (single isomer, unassigned) [Example 7C, 4-((R or S)-1-(2-chloro-6-(oxetan-3-yl)benzoyl)-6-(hydroxymethyl)-4,5,6,7-tetrahydro-1H-indazol-3-yl)cyclohex-3-ene-1-carboxylic acid] is 0.23 log units lower in pIC50: 8.05 for the first, 7.82 for the second.

Going from O=C(O)C1CC=C(c2nn(C(=O)c3c(C4CC4)ccc(F)c3Cl)c3c2CCC(CO)C3)CC1 (single isomer, unassigned) [Example 7B, 4-((R or S)-1-(2-chloro-6-cyclopropyl-3-fluorobenzoyl)-6-(hydroxymethyl)-4,5,6,7-tetrahydro-1H-indazol-3-yl)cyclohex-3-ene-1-carboxylic acid] to O=C(O)C1CC=C(c2nn(C(=O)c3c(Cl)cccc3C3CC3)c3c2CCC(O)C3)CC1 (single isomer, unassigned) [Example 10A, 4-((R or S)-1-(2-chloro-6-cyclopropylbenzoyl)-6-hydroxy-4,5,6,7-tetrahydro-1H-indazol-3-yl)cyclohex-3-ene-1-carboxylic Acid], the pIC50 falls from 7.85 to 7.24 (0.61 log units).

First: O=C(O)C1CC=C(c2nn(C(=O)c3c(Cl)cccc3C3(C(F)(F)F)CC3)c3c2CCC(CO)C3)CC1 (single isomer, unassigned) [Example 7D, 4-((R or S)-1-(2-chloro-6-(1-(trifluoromethyl)cyclopropyl)benzoyl)-6-(hydroxymethyl)-4,5,6,7-tetrahydro-1H-indazol-3-yl)cyclohex-3-ene-1-carboxylic acid]
Second: O=C(O)C1CC=C(c2nn(C(=O)c3c(Cl)cccc3C3CC3)c3c2CCC(O)C3)CC1 (single isomer, unassigned) [Example 10B, 4-((R or S)-1-(2-chloro-6-cyclopropylbenzoyl)-6-hydroxy-4,5,6,7-tetrahydro-1H-indazol-3-yl)cyclohex-3-ene-1-carboxylic Acid]
The pIC50 of the first is 0.81 log units higher: 8.30 for the first, 7.49 for the second.

First: CC1(c2cccc(Cl)c2C(=O)n2nc(C3=CCC(C(=O)O)CC3)c3c2COCC3)CC1 (centres unmarked) [Example 1D, 4-(1-{[2-chloro-6-(1-methylcyclopropyl)phenyl]carbonyl}-1,4,5,7-tetrahydropyrano[3,4-c]pyrazol-3-yl)cyclohex-3-ene-1-carboxylic acid]
Second: N#CC1(c2cccc(Cl)c2C(=O)n2nc(C3=CCC(C(=O)O)CC3)c3c2CCC3)CCC1 (centres unmarked) [Example 1F, 4-(1-{[2-chloro-6-(1-cyanocyclobutyl)phenyl]carbonyl}-1,4,5,6-tetrahydrocyclopenta[c]pyrazol-3-yl)cyclohex-3-ene-1-carboxylic acid]
The pIC50 of the first is 1.49 log units higher: 7.42 for the first, 5.93 for the second.

Going from O=C(O)C1CC=C(c2nn(C(=O)c3c(Cl)cccc3C3CC3)c3c2OCCC3)CC1 (centres unmarked) [Example 15A, 4-(1-(2-chloro-6-cyclopropylbenzoyl)-1,5,6,7-tetrahydropyrano[3,2-c]pyrazol-3-yl)cyclohex-3-ene-1-carboxylic Acid] to O=C(O)C1CCN(c2nn(C(=O)c3c(Cl)cccc3C3CC3)c3c2CCCC3)CC1 [Example 16A, 1-(1-(2-chloro-6-cyclopropylbenzoyl)-4,5,6,7-tetrahydro-1H-indazol-3-yl)piperidine-4-carboxylic Acid], the pIC50 falls from 7.25 to 6.83 (0.42 log units).
